Results taken from EP1674466A1, “2,5- and 2,6-disubstituted benzazole analogues useful as protein kinase inhibitors” (4SC AG, priority 2004, dated 2006).

The molecules below were run against at least one kinase selected from Aurora A, Aurora B, EGF-R, ERBB2, PDGFR, IGF1-R, VEGF-R2, VEGF-R3, EPHB4, Tie2, and SRC (assay: 33PanQinase Activity Assay (protein kinase assay)). Settings: on at least one kinase of the listed panel, or on at least two kinases from at least two different molecular mechanisms of tumor progression; recombinant human kinases, 1 µM ATP.
Assay type: biochemical
Procedure: The effect of the benzazole derivatives was tested on recombinant, human protein kinases. All protein kinases were expressed in Sf9 insect cells as human recombinant GST-fusion proteins or as His-tagged proteins by means of the baculovirus expression system. Protein kinases were purified by affinity chromatography using either GSH-agarose or Ni-NTH-agarose. The purity and identity of each was checked by SDS-PAGE/silver staining and by western blot analysis with specific antibodies. A proprietary protein kinase assay (^33PanQinase® Activity Assay) was used for measuring the kinase activity. All kinase assays were performed in 96-well FlashPlates™ in a 50 µl reaction volume. The assay for all enzymes contained 60 mM HEPES-NaOH, pH 7.5, 3 mM MgCl2, 3 mM MnCl2, 3 µM Na-orthovanadate, 1.2 mM DTT, 50 µg/ml PEG20000 and 1 µM [γ-^33P]-ATP (approx. 5x10^5 cpm per well). The reaction cocktails were incubated at 30°C for 80 minutes. The reaction was stopped with 50 µl of 2% (v/v) H3PO4, plates were aspirated and washed two times with 200 µl of 0.9% (w/v) NaCl. Incorporation of ^33Pi was determined with a microplate scintillation counter. All assays were performed with a BeckmanCoulter/ Sagian robotic system.

Compound	IC50
COc1cc2ncnc(Nc3ccc4nc(NC(=O)c5ccccc5)sc4c3)c2cc1OC [Example 2, N-[6-(6,7-Dimethoxyquinazolin-4-ylamino)benzothiazol-2-yl]benzamide]	< 500 nM
COc1cc2ncnc(Nc3ccc4nc(NC(=O)c5ccccc5)oc4c3)c2cc1OC [Example 1, N-[6-(6,7-Dimethoxyquinazolin-4-ylamino)benzoxazol-2-yl]benzamide]	< 500 nM

The next lines start with the values.

IC50	Compound
< 500 nM	O=C(Nc1nc2cc(Nc3ncnc4nc[nH]c34)ccc2s1)c1ccccc1 [Example 11, N-[5-(Purin-6-ylamino)benzothiazol-2-yl]benzamide]
< 500 nM	COc1cc2c(Nc3ccc4nc(NC(=O)c5ccccc5)sc4c3)ncnc2cc1OCCCN1CCN(C)CC1 [Example 5, N-(6-{6-Methoxy-7-[3-(4-methylpiperazin-1-yl)propoxy]quinazolin-4-yl-amino}benzothiazol-2-yl)benzamide]
< 500 nM	Cc1cc(Nc2ccnc(Nc3ccc4nc(NC(=O)c5ccccc5)sc4c3)n2)n[nH]1 [Example 9, N-{6-[4-(5-Methylpyrazol-3-ylamino)pyrimidin-2-ylamino]benzothiazol-2-yl}benzamide]
